Tests used:
Assay in all cases: KINOMEscan kinase binding assay
[1] = target: T1, 384 kinases from the human genome (Homo sapiens, UniProt P57058); details: kinase HUNK (Entrez HUNK)
T1 construct: purchased Eurofin/DiscoverX
Procedure, shortened: (§1)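 A panel of 384 human kinases was profiled by KINOMEscan binding in the presence of 10 µM compound. Kinase–ligand binding was given as percent of DMSO control, averaged from duplicates in a single run, with an S(10) selectivity score.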

[2] = target: T2, 384 kinases from the human genome (Homo sapiens, UniProt Q9HCP0); details: kinase CSNK1G1 (Entrez CSNK1G1)
T2 construct: purchased Eurofin/DiscoverX
Procedure, shortened: as §1

[3] = target: T3, 384 kinases from the human genome (Homo sapiens, UniProt Q6DT37); details: kinase DMPK2 (Entrez CDC42BPG)
T3 construct: purchased Eurofin/DiscoverX
Procedure, shortened: as §1

[4] = target: T4, 384 kinases from the human genome (Homo sapiens, UniProt Q13554); details: kinase CAMK2B (Entrez CAMK2B)
T4 construct: purchased Eurofin/DiscoverX
Procedure, shortened: as §1

[5] = target: T5, 384 kinases from the human genome (Homo sapiens, UniProt Q9HBH9); details: kinase MKNK2 (Entrez MKNK2)
T5 construct: purchased Eurofin/DiscoverX
Procedure, shortened: as §1

[6] = target: T6, 384 kinases from the human genome (Homo sapiens, UniProt Q32MK0); details: kinase MLCK (Entrez MYLK3)
T6 construct: purchased Eurofin/DiscoverX
Procedure, shortened: as §1

[7] = target: T7, 384 kinases from the human genome (Homo sapiens, UniProt O00506); details: kinase YSK1 (Entrez STK25)
T7 construct: purchased Eurofin/DiscoverX
Procedure, shortened: as §1

[8] = target: T8, 384 kinases from the human genome (Homo sapiens, UniProt P49759); details: kinase CLK1 (Entrez CLK1)
T8 construct: purchased Eurofin/DiscoverX
Procedure, shortened: as §1

[9] = target: T9, 384 kinases from the human genome (Homo sapiens, UniProt Q6ZWH5); details: kinase NEK10 (Entrez NEK10)
T9 construct: purchased Eurofin/DiscoverX
Procedure, shortened: as §1

[10] = target: T10, 384 kinases from the human genome (Homo sapiens, UniProt P42345); details: kinase MTOR (Entrez MTOR)
T10 construct: purchased Eurofin/DiscoverX
Procedure, shortened: as §1

[11] = target: T11, 384 kinases from the human genome (Homo sapiens, UniProt P37023); details: kinase ACVRL1 (Entrez ACVRL1)
T11 construct: purchased Eurofin/DiscoverX
Procedure, shortened: as §1

[12] = target: T12, 384 kinases from the human genome (Homo sapiens, UniProt Q9HBY8); details: kinase SGK2 (Entrez SGK2)
T12 construct: purchased Eurofin/DiscoverX
Procedure, shortened: as §1

[13] = target: T13, 384 kinases from the human genome (Homo sapiens, UniProt P04049); details: kinase RAF1 (Entrez RAF1)
T13 construct: purchased Eurofin/DiscoverX
Procedure, shortened: as §1

[14] = target: T14, 384 kinases from the human genome (Homo sapiens, UniProt Q9UHD2); details: kinase TBK1 (Entrez TBK1)
T14 construct: purchased Eurofin/DiscoverX
Procedure, shortened: as §1

[15] = target: T15, 384 kinases from the human genome (Homo sapiens, UniProt O15075); details: kinase DCAMKL1 (Entrez DCLK1)
T15 construct: purchased Eurofin/DiscoverX
Procedure, shortened: as §1

[16] = target: T16, 384 kinases from the human genome (Homo sapiens, UniProt P68400); details: kinase CSNK2A1 (Entrez CSNK2A1)
T16 construct: purchased Eurofin/DiscoverX
Procedure, shortened: as §1

[17] = target: T17, 384 kinases from the human genome (Homo sapiens, UniProt P42681); details: kinase TXK (Entrez TXK)
T17 construct: purchased Eurofin/DiscoverX
Procedure, shortened: as §1

[18] = target: T18, 384 kinases from the human genome (Homo sapiens, UniProt P52564); details: kinase MEK6 (Entrez MAP2K6)
T18 construct: purchased Eurofin/DiscoverX
Procedure, shortened: as §1

[19] = target: T19, 384 kinases from the human genome (Homo sapiens, UniProt Q9NRM7); details: kinase LATS2 (Entrez LATS2)
T19 construct: purchased Eurofin/DiscoverX
Procedure, shortened: as §1

[20] = target: T20, 384 kinases from the human genome (Homo sapiens, UniProt P53779); details: kinase JNK3 (Entrez MAPK10)
T20 construct: purchased Eurofin/DiscoverX
Procedure, shortened: as §1

[21] = target: T21, 384 kinases from the human genome (Homo sapiens, UniProt Q8TDR2); details: kinase STK35 (Entrez STK35)
T21 construct: purchased Eurofin/DiscoverX
Procedure, shortened: as §1

[22] = target: T22, 384 kinases from the human genome (Homo sapiens, UniProt P37173); details: kinase TGFBR2 (Entrez TGFBR2)
T22 construct: purchased Eurofin/DiscoverX
Procedure, shortened: as §1

[23] = target: T23, 384 kinases from the human genome (Homo sapiens, UniProt O94806); details: kinase PRKD3 (Entrez PRKD3)
T23 construct: purchased Eurofin/DiscoverX
Procedure, shortened: as §1

[24] = target: T24, 384 kinases from the human genome (Homo sapiens, UniProt Q9NSY1); details: kinase BIKE (Entrez BMP2K)
T24 construct: purchased Eurofin/DiscoverX
Procedure, shortened: as §1

[25] = target: T25, 384 kinases from the human genome (Homo sapiens, UniProt O14578); details: kinase CIT (Entrez CIT)
T25 construct: purchased Eurofin/DiscoverX
Procedure, shortened: as §1

[26] = target: T26, 384 kinases from the human genome (Homo sapiens, UniProt Q8TD08); details: kinase ERK8 (Entrez MAPK15)
T26 construct: purchased Eurofin/DiscoverX
Procedure, shortened: as §1

T7 sequence (O00506 whole entry): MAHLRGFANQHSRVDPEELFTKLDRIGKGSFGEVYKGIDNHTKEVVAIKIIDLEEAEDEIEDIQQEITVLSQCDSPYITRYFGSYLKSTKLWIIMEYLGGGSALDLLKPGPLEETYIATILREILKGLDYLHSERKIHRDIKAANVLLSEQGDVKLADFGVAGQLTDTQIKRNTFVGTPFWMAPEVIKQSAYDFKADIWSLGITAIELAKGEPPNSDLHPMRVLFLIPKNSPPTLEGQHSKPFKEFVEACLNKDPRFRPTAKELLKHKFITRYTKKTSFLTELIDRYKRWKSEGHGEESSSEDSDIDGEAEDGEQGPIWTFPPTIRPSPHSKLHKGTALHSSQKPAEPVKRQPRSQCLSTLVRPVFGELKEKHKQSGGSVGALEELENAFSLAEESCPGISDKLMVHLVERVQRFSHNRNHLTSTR
T14 sequence (Q9UHD2 whole entry): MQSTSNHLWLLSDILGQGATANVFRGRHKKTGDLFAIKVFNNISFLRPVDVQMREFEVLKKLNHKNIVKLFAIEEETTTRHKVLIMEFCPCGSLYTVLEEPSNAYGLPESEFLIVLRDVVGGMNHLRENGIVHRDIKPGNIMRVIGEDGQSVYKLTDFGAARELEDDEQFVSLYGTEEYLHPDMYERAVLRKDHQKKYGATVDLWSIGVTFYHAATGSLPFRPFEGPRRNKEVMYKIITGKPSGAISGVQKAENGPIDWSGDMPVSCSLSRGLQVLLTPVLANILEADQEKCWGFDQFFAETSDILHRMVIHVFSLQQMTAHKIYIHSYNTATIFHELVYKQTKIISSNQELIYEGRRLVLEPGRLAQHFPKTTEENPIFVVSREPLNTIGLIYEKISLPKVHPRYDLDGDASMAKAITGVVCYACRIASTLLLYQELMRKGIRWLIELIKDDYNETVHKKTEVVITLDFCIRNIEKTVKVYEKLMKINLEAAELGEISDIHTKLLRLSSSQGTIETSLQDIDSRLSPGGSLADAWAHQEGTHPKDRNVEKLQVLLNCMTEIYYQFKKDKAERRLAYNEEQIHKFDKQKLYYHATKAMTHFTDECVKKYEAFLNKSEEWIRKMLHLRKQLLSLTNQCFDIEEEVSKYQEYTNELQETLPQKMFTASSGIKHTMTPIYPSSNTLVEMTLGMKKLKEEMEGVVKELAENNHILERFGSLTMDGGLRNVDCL
T20 sequence (P53779 whole entry): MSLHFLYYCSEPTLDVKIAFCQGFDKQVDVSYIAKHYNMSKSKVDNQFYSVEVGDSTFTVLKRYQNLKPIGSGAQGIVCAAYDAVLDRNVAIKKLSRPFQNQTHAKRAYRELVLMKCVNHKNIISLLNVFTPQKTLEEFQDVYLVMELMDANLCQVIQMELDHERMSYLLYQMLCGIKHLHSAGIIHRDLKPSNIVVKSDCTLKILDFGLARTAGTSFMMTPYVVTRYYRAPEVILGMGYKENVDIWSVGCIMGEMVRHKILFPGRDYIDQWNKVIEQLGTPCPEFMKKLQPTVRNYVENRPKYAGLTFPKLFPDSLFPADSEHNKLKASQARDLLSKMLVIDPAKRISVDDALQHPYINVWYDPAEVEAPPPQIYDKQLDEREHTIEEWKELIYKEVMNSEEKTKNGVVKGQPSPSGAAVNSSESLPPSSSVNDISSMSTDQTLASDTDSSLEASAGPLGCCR
T6 sequence (Q32MK0 whole entry): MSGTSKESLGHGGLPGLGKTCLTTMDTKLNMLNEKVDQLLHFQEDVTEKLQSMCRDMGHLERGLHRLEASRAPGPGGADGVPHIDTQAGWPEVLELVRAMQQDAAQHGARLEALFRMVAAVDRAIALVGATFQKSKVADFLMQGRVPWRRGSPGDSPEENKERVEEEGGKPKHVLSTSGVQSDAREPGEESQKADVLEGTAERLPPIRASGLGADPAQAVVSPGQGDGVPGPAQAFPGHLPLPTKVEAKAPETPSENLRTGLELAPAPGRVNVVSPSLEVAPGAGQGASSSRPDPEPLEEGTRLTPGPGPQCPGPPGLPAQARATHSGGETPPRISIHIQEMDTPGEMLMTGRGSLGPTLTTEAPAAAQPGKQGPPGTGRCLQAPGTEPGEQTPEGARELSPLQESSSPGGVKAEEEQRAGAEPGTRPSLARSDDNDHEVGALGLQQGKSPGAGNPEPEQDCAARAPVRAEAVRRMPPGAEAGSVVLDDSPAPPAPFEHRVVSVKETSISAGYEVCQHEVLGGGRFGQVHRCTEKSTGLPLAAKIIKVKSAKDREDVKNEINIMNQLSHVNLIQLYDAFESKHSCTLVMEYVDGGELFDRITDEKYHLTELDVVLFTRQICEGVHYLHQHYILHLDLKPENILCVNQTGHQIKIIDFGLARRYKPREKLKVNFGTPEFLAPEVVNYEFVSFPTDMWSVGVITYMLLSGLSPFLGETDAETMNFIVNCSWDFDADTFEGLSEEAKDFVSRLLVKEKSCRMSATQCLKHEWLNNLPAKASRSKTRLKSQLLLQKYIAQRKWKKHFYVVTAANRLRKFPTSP
T23 sequence (O94806 whole entry): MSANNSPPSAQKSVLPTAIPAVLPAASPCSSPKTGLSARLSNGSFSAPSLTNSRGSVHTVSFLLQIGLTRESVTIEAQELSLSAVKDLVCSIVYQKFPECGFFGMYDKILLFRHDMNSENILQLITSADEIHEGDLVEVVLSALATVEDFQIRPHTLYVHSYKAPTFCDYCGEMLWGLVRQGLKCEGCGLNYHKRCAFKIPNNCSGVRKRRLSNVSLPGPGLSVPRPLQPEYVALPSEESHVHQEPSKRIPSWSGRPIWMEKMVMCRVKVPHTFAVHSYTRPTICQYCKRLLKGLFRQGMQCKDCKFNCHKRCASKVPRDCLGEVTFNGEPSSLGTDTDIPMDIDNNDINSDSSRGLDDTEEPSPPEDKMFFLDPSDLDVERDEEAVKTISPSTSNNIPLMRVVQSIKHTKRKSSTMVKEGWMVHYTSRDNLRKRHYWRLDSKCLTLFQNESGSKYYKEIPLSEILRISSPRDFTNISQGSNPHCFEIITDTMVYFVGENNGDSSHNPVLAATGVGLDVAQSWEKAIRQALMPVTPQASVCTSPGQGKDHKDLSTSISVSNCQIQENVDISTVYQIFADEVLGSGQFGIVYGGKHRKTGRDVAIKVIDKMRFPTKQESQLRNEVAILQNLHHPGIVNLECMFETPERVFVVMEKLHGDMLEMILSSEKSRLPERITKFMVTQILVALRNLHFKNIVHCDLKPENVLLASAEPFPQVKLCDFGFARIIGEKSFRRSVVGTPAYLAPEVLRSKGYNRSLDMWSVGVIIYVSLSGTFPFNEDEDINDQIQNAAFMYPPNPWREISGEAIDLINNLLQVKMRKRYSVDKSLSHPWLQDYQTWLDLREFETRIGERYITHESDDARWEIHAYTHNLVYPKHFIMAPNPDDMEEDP
T16 sequence (P68400 whole entry): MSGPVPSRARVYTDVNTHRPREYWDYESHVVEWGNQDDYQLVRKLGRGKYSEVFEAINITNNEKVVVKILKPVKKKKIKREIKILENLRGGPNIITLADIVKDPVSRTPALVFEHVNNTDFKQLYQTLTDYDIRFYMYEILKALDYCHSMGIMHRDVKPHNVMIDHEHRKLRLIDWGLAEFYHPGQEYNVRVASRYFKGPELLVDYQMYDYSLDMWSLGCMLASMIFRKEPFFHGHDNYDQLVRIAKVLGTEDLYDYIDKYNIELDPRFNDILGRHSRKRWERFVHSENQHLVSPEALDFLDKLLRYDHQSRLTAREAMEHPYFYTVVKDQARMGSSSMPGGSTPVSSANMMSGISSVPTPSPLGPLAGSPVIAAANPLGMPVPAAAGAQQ
T21 sequence (Q8TDR2 whole entry): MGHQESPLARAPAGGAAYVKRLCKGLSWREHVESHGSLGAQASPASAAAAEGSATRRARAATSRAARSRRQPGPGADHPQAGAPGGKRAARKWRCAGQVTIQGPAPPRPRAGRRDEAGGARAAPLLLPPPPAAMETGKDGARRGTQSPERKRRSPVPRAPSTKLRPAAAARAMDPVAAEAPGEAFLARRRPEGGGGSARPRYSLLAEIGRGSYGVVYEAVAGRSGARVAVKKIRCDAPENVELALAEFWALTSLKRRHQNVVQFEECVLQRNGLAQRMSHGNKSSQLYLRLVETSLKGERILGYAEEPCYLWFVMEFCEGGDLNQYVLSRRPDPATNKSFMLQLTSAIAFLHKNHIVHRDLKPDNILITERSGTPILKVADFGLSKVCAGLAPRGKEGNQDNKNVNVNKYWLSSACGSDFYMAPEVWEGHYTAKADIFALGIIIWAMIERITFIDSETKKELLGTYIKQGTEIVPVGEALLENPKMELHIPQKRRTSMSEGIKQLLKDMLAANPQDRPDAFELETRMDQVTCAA
T2 sequence (Q9HCP0 whole entry): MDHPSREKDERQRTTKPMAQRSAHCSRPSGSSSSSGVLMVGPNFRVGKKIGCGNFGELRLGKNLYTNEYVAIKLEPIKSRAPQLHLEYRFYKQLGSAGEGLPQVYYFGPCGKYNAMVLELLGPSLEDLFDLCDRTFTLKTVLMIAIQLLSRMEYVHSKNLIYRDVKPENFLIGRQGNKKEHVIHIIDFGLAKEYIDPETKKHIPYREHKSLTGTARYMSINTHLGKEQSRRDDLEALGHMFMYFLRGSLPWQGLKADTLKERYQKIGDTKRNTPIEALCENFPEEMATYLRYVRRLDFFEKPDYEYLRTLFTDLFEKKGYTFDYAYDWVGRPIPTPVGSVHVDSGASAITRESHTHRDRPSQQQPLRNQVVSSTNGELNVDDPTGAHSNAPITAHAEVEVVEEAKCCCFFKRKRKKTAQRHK
T18 sequence (P52564 whole entry): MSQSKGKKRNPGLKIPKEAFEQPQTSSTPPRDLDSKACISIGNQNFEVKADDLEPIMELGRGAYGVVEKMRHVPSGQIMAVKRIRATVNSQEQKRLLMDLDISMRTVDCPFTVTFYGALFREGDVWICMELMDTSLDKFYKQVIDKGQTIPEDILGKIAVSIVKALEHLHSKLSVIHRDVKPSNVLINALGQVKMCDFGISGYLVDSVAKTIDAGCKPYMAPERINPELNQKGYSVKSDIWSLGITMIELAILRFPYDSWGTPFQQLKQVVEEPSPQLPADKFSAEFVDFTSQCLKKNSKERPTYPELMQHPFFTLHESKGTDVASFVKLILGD

CC(C)C(=O)N1CCN(c2ccc(NC(=O)c3cc4ccccc4o3)cc2Cl)CC1 [Compound 21]
Percent Control [1]: 69% | Percent Control [2]: 87% | Percent Control [3]: 77% | Percent Control [4]: 100% | Percent Control [5]: 97% | Percent Control [6]: 90% | Percent Control [7]: 100% | Percent Control [8]: 98% | Percent Control [9]: 95% | Percent Control [10]: 65% | Percent Control [11]: 94% | Percent Control [12]: 100% | Percent Control [13]: 79% | Percent Control [14]: 100% | Percent Control [15]: 76% | Percent Control [16]: 100% | Percent Control [17]: 76% | Percent Control [18]: 97% | Percent Control [19]: 98% | Percent Control [20]: 75% | Percent Control [21]: 100% | Percent Control [22]: 99% | Percent Control [23]: 98% | Percent Control [24]: 100% | Percent Control [25]: 75% | Percent Control [26]: 100%
